Patent US11369565B2, “Amino-pyrimidine skeletal muscle modulators” (Cytokinetics, Inc., priority 2010, dated 2022)

The compounds below were run on rabbit skeletal myofibrils (approximately 90% fast fibers) (assay: Activation of fast skeletal myofibrils (PUMA coupled-enzyme ATPase assay at pCa25)). Conditions: concentration at which the compound increased the enzymatic activity by 40%; calcium at pCa25; PM12 buffer pH 6.8.
Assay type: biochemical
In short: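 Detergent-washed rabbit psoas myofibrils tested at calcium giving 25% of maximal rate (pCa25). ATPase activity tracked by pyruvate kinase/lactate dehydrogenase coupling, NADH oxidation read as absorbance at 340 nm, in PM12 buffer (12 mM Pipes, 2 mM MgCl2, 1 mM DTT, pH 6.8).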
For `CNC(=O)c1ccc(O)c(-c2cnc(NCC3(c4ncccc4F)CCC3)nc2)c1` [{3-[2-({[(3-fluoro(2-pyridyl))cyclobutyl]methyl}amino)pyrimidin-5-yl]-4-hydroxyphenyl}-N-methylcarboxamide], the “Mean AC1.4” value was “B (B=1-10 uM)”. In the case of `O=C(NC1CC(O)C1)c1ccc(F)c(-c2cnc(NC[C@]3(c4ncccc4F)C[C@H](F)C3)nc2)c1` (stereo partly shown) [{4-fluoro-3-[2-({[3-fiuoro-1-(3-fluoro(2-pyridyl))cyclobutyl]methyl}amino)pyrimidin-5-yl]phenyl}-N-(3-hydroxycyclobutyl)carboxamide], the “Mean AC1.4” value is reported as “A (A=<1 uM)”. `CS(=O)(=O)N1CC(NC(=O)c2ccc(F)c(-c3cnc(NC[C@]4(c5ncccc5F)C[C@H](F)C4)nc3)c2)C1` [{4-fluoro-3-[2-({[3-fluoro-1-(3-fluoro(2-pyridyl))cyclobutyl)]methyl}amino)pyridin-5-yl]phenyl}-N-[1-(methylsulfonyl)azetidin-3-yl]carboxamide] was tested, and the “Mean AC1.4” value was 6 µM. With `CN1CC(NC(=O)c2ccc(F)c(-c3cnc(NC[C@]4(c5ncccc5F)C[C@H](F)C4)nc3)c2)C1` [{4-fluoro-3-[2-({[3-fluoro-1-(3-fluoro(2-pyridyl))cyclobutyl]methyl}amino)pyrimidin-5-yl]phenyl}-N-(1-methylazetidin-3-yl)carboxamide] the “Mean AC1.4” value was “B (B=1-10 uM)”. In the case of `CNC(=O)c1ccc(F)c(-c2cnc(NC[C@]3(c4ncccc4F)C[C@H](F)C3)nc2)c1` [{4-fluoro-3-[2-({[3-fluoro-1-(3-fluoro(2-pyridyl))cyclobutyl]methyl}amino)pyrimidin-5-yl]phenyl}-N-methylcarboxamide], the “Mean AC1.4” value is reported as “A (A=<1 uM)”. In the case of `CNC(=O)c1ccc(F)c(-c2cnc(NCC3(c4ncccc4F)CCC3)nc2)c1` [{4-fluoro-3-[2-({[(3-fluoro(2-pyridyl))cyclobutyl]methyl}amino)pyrimidin-5-yl]phenyl}-N-methylcarboxamide], the “Mean AC1.4” value is reported as “B (B=1-10 uM)”. With `CC(C)(Nc1ncc(-c2nc(CN)cs2)cn1)c1ncccc1F` [{5-[4-(aminomethyl)(1,3-thiazol-2-yl)]pyrimidin-2-yl}[1-(3-fluoro(2-pyridyl))-isopropyl]amine] the “Mean AC1.4” value was “D (D=>20 uM)”. With `CC(C)(Nc1ncc(-c2ncc(CN)s2)cn1)c1ncccc1Cl` [{5-[5-(aminomethyl)(1,3-thiazol-2-yl)]pyrimidin-2-yl}[1-(3-chloro(2-pyridyl))-isopropyl]amine] the “Mean AC1.4” value was “D (D=>20 uM)”. In the case of `CC(C)(Nc1ncc(-c2ncc(CN)s2)cn1)c1ncccc1F` [{5-[5-(aminomethyl)(1,3-thiazol-2-yl)]pyrimidin-2-yl}[1-(3-fluoro(2-pyridyl))-isopropyl]amine], the “Mean AC1.4” value is reported as “D (D=>20 uM)”. With `NCc1cnc(-c2cnc(NCC3(c4ncccc4Cl)CCC3)nc2)s1` [{5-[5-(aminomethyl)(1,3-thiazol-2-yl)]pyrimidin-2-yl}{[3-chloro(2-pyridyl))cyclobutyl]methyl)amine] the “Mean AC1.4” value was “B (B=1-10 uM)”. In the case of `NCc1cnc(-c2cnc(NCC3(c4ncccc4F)CCC3)nc2)s1` [{5-[5-(aminomethyl)(1,3-thiazol-2-yl)]pyrimidin-2-yl}{[(3-fluoro(2-pyridyl))cyclobutyl]methyl}amine], the “Mean AC1.4” value is reported as “C (C=10-20 uM)”. With `O=C(Nc1cnc(NCC2(c3ncccc3F)CCC2)nc1)Nc1nccs1` [{[2-({[(3-fluoro(2-pyridyl))cyclobutyl]methyl}amino)pyrimidin-5-yl]amino}-N-(1,3-thiazol-2-yl)carboxamide] the “Mean AC1.4” value was “B (B=1-10 uM)”. `COc1nc(NC[C@]2(c3ncccc3F)C[C@@H](F)C2)ncc1-c1ccccc1` [{[3-fluoro-1-(3-fluoro(2-pyridyl))cyclobutyl]methyl)(4-methoxy-5-phenylpyrimidin-2-yl)amine] was tested, and the “Mean AC1.4” value was “B (B=1-10 uM)”. `COc1ncc(-c2cnc(NC[C@]3(c4ncccc4F)C[C@H](F)C3)nc2)cn1` [{[3-fluoro-1-(3-fluoro(2-pyridyl))cyclobutyl]methyl} [5-(2-methoxypyrimidin-5-yl)pyrimidin-2-yl]amine] was tested, and the “Mean AC1.4” value was “D (D=>20 uM)”. With `COc1ccc(-c2cnc(NC[C@]3(c4ncccc4F)C[C@H](F)C3)nc2)cn1` [{[3-fluoro-1-(3-fluoro(2-pyridyl))cyclobutyl]methyl} [5-(6-methoxy(3-pyridyl))pyrimidin-2-yl]amine] the “Mean AC1.4” value was “D (D=>20 uM)”. For `COc1nc(NC[C@]2(c3ncccc3F)C[C@H](F)C2)ncc1-c1ccccc1` [{[3-fluoro-1-(3-fluoro(2-pyridyl))cyclobutyl]methyl}(4-methoxy-5-phenylpyrimidin-2-yl)amine], the “Mean AC1.4” value was “B (B=1-10 uM)”. With `COc1nc(N(C)C[C@]2(c3ncccc3F)C[C@H](F)C2)ncc1-c1ccccc1` [{[3-fluoro-1-(3-fluoro(2-pyridyl))cyclobutyl]methyl}(4-methoxy-5-phenylpyrimidin-2-yl)methylamine] the “Mean AC1.4” value was “D (D=>20 uM)”. `COc1ccnc(NC[C@]2(c3ncccc3F)C[C@H](F)C2)n1` [{[3-fluoro-1-(3-fluoro(2-pyridyl))cyclobutyl]methyl}(4-methoxypyrimidin-2-yl)amine] was tested, and the “Mean AC1.4” value was “D (D=>20 uM)”. `CNc1nc(NC[C@]2(c3ncccc3F)C[C@H](F)C2)ncc1-c1ccccc1` [{[3-fluoro-1-(3-fluoro(2-pyridyl))cyclobutyl]methyl}[4-(methylamino)-5-phenylpyrimidin-2-yl]amine] was tested, and the “Mean AC1.4” value was “D (D=>20 uM)”. In the case of `Fc1ccccc1-c1cnc(NC[C@]2(c3ncccc3F)C[C@H](F)C2)nc1` [{[3-fluoro-1-(3-fluoro(2-pyridyl))cyclobutyl]methyl}[5-(2-fluorophenyl)pyrimidin-2-yl]amine], the “Mean AC1.4” value is reported as “A (A=<1 uM)”. With `COc1ccc(C)nc1-c1cnc(NC[C@]2(c3ncccc3F)C[C@H](F)C2)nc1` [{[3-fluoro-1-(3-fluoro(2-pyridyl))cyclobutyl]methyl}[5-(3-methoxy-6-methyl(2-pyridyl))pyrimidin-2-yl]amine] the “Mean AC1.4” value was “C (C=10-20 uM)”. `COc1ccc(-c2cnc(NC[C@]3(c4ncccc4F)C[C@H](F)C3)nc2)nn1` [{[3-fluoro-1-(3-fluoro(2-pyridyl))cyclobutyl]methyl}[5-(6-methoxypyridazin-3-yl)]pyrimidin-2-yl]amine] was tested, and the “Mean AC1.4” value was “D (D=>20 uM)”. `Fc1cccnc1[C@]1(CNc2ncccn2)C[C@@H](F)C1` [{[3-fluoro-1-(3-fluoro(2-pyridyl))cyclobutyl]methyl}pyrimidin-2-ylamine] was tested, and the “Mean AC1.4” value was “D (D=>20 uM)”. For `Clc1cccnc1C1(CNc2ncccn2)CCC1` [{[(3-chloro(2-pyridyl))cyclobutyl]methyl}pyrimidin-2-ylamine], the “Mean AC1.4” value was “D (D=>20 uM)”. For `Fc1cccnc1C1(CNc2ncc(-c3ncc[nH]3)cn2)CCC1` [{[(3-fluoro(2-pyridyl))cyclobutyl]methyl}(5-imidazol-2-ylpyrimidin-2-yl)amine], the “Mean AC1.4” value was “C (C=10-20 uM)”. With “N-(2-aminoethyl)[2-({[(3-fluoro(2- pyridyl))cyclobutyl]methyl}amino) pyrimidin-5-yl]carboxamide” the “Mean AC1.4” value was “D (D=>20 uM)”. “[5-(2-{[1-(3-chloro(2-pyridyl))- isopropyl}amino}pyrimidin-5-yl)(1H- indazol-3-yl)]methylsulfonyl)amine” was tested, and the “Mean AC1.4” value was “A (A=<1 uM)”. In the case of “ethyl 1-[(2-{[2-(4-fluorophenyl)-2- methylpropyl]amino}pyrimidin-5- yl)carbonylamino] cyclopropanecarboxylate”, the “Mean AC1.4” value is reported as “D (D=>20 uM)”.
